These results are taken from patent US4774250A, “Composition and method for treating differentiated carcinoma or melanoma cells with thiapyrylium dyes” (Dana Farber Cancer Institute, priority 1987, dated 1988).

Read-outs that look alike come from different tables or passages of the source.

In assay [1] the test system is stomach cancer. The following applies: stomach cancer in Japan, Antibiotics Chemother., Vol. 24, pages 149-159 (1978); cited from earlier work.
Assay [2] deals with CX-1 (human colon carcinoma). Kind of assay: Clonogenic in vitro study, inhibition of cell colony formation, CX-1. The following applies: for Selectivity / S (selectivity value): CV-1 IC50 divided by CX-1 IC50; for IC50: Homo sapiens, Colon carcinoma cell, read-out: CX-1 (colon carcinoma cells IC50 value); for S (selectivity value): comparative examples. The assay is classed as cell-based. The method, then:
This IC50 value is compared for both the CX-1 and CV-1. That is, the CV-1 value is divided by the value for CX-1. If the value is 10 μg/ml for CV-1, and […] for CX-1, then the dye is 10 times as effective in killing off the colon carcinoma cells, compared to the monkey epithelial cells. This is expressed as a selectivity "S" of 10. That is, in order to inhibit 50% of the normal cells, the drug requires ten times the concentration needed for inhibiting 50% of the cancer cells.

The test system of assay [3] is CV-1 (normal monkey kidney epithelial cells). Kind of assay: Clonogenic in vitro study, inhibition of cell colony formation, CV-1. In kind it is cell-based. The following applies: for IC50: Primates, Epithelial cell. The text has this:
As noted above, one of the advantages of the invention is that the thiapyryliums described herein selectively attack the cancer cells as opposed to normal cells. Although knowledge of the mechanism is not essential to the practice of the invention, it is believed this occurs through the preferential inhibition of ATP synthesis in the mitochondria of the cancer cells. Such selectivity is further shown in clonogenic in vitro studies carried out in conventional fashion. That is, cell cultures of CX-1 (human colon carcinoma) and CV-1 (normal monkey kidney epithelial cells) are prepared and treated at various concentrations, in the conventional manner, and the concentration of the dye that inhibits 50% of the cell colonies formation is denoted as IC50. This IC50 value is compared for both the CX-1 and CV-1. That is, the CV-1 value is divided by the value for CX-1. If the value is 10 μg/ml for CV-1, and […] for CX-1, then the dye is 10 times as effective in killing off the colon carcinoma cells, compared to the monkey epithelial cells. This is expressed as a selectivity "S" of 10. That is, in order to inhibit 50% of the normal cells, the drug requires ten times the concentration needed for inhibiting 50% of the cancer cells.
("Retest" in this table refers to a repeat of the clonogenic test on either an entirely different preparation of the compound, or on a different recrystallization of the same preparation. The slight variance in selectivity can be accounted for, it is speculated, by a different moisture content in the preparation or crystallization of the compounds.)

The subject of assay [4] is human melanoma cell line, LOX. Kind of assay: Melanoma test using nude mice protocol (LOX xenograft survival). In kind it is in vivo, human melanoma cells in athymic Swiss nu/nu mice. The following applies: male nude mice, 5 mg/kg IP daily for five days, then three times per week. The text has this: (§1) FIGS. 1-6 are survival plots of cancer-bearing mice treated with the dyes of this invention, compared to a control group of such mice that were untreated. In these plots, "% survival" means the % of the total group (treated "T" or control "C") still surviving on the day in question. The 50% data point is selected for the T/C calculation, as being the point that is statistically meaningful.
(§2) Effectiveness against human cancer can be inferred by tests in the nude mouse-human xenograft model, hereinafter "nude mice protocol". […] 899-903, especially p. 889 (April 1985).
(§3) Nude mice, that is, those deficient in thymic functions, bred and maintained in pathogen-free conditions [See J. Natl. Cancer Inst. 51: 615-619 (1973)] were used in in vivo experiments. For each experiment, nude mice from the same litter and of the same sex which were over 3 months old and weighed at least 25 g were injected or implanted with cancer cells.
A human melanoma cell line, LOX, was used that grows rapidly when inoculated into the peritoneal cavity of athymic mice. […] Cells were then scored for viability with trypan blue and 5 million viable cells made up in 0.1 ml of Dulbecco modified Eagles' medium (DME) were injected intraperitoneally into a group of male athymic Swiss nu/nu mice. […]
In general terms: A xenograft is tissue or cells of one species grown in another, often human tumour cells in immunodeficient mice.

The subject of assay [5] is human ovarian carcinoma line OVCAR-3. Kind of assay: Ovarian carcinoma (OVCAR-3) using nude mice protocol (survival). The assay is classed as in vivo, human ovarian carcinoma cells in nude mice. The following applies: OVCAR-3, female nude mice, 5 mg/kg IP daily for five days, then twice weekly.
From the text: as §1, §2, §3
Ex. 1 and 2 were repeated, except they were administered to female nude mice xenografted with human ovarian carcinoma line OVCAR-3. Ten mice were selected for treatment with the thiapyrylium, in an amount of 5 mg/kg administered IP 1 day after the cancer cells were injected. This was repeated as follows: daily for five days followed by twice weekly (usually on Tuesday and Thursday). Ten mice were used as the control group and were injected with 0.25 ml of 5% dextrose in water.

Assay [6] deals with MB49 tumor cells. Kind of assay: Treatment of mouse bladder carcinoma (MB49) using thiapyrylium dyes administered IP (survival). The assay is classed as in vivo. The following applies: MB49, male BDF1 mice, 2 mg/kg IP daily for 5 days, then twice a week.
From the text: as §1
MB49 tumor cells, that is, mouse carcinoma cells induced by the carcinogen 7,12-dimethyl benz[a]anthracene, were injected intraperitoneally into normal male BDF1 mice (2×10^6 /mouse). Each drug treated group and control group had ten mice. Except for the control group, one of the thiapyrylium dyes of Ex. 1 and Ex. 2 was administered intraperitoneally starting the following day in the following manner: 2 mg/kg daily for 5 days followed by 2 mg/kg twice a week. The control group of 10 mice was treated with 0.25 ml of 5% dextrose in water and was the same control group used for both Ex. 5-6. The survival rate was calculated as in the previous examples. The results were that the dye of Ex. 1 produced a T/C of 227%, and the dye of Ex. 2 produced a T/C of 263%, as shown further in FIGS. 5-6.

Where [7] appears, read: clonogenic, CX-1 human colon carcinoma.
[8] abbreviates: clonogenic, CV-1 normal monkey kidney epithelial cells.
Where [9] appears, read: retest: different preparation or recrystallization, CX-1.
The mark [10] stands for this setting: retest: different preparation or recrystallization, CV-1.

As to `COc1cccc2c1C(=O)c1c(O)c3c(c(O)c1C2=O)C[C@@](O)(C(=O)CO)C[C@@H]3O[C@H]1C[C@H](N)[C@H](O)[C@H](C)O1` [Adriamycin], the effective response rate in assay [1] is given as 14.5%.

The molecule `CN(C)c1ccc(-c2cc(-c3ccccn3)[s+]c(-c3cccs3)c2)cc1` [T-1, 4-(4-dimethylaminophenyl)-2-(2-pyridyl)-6-(2-thienyl)thiapyrylium chloride] had a Selectivity in assay [2] of 200. In addition, the half-maximal inhibitory concentration (IC50) (in general, the concentration needed to halve the response being measured) in assay [2] (setting [7]) worked out at 0.01 µg/mL. The “CV-1 (normal cells IC50 value)” value in assay [3] (setting [8]) was 2.0 µg/mL. Besides, in assay [4], the “T/C (test drug versus control, calculated based on 50% survival day)” value was 200%. For the same molecule, the T/C (usually the result in the treated group divided by that in the control group, in per cent) in assay [5] is reported as 321%; in assay [6] it was 263%.

Turning to `CN(C)c1ccc(-c2cc(-c3ccccc3)[s+]c(-c3ccccn3)c2)cc1` [T-2, 4-(4-dimethylaminophenyl)-2-phenyl-6-(2-pyridyl)thiapyrylium chloride], the Selectivity in assay [2] was 167; in assay [2] (retest) it was 60. Moreover, the IC50 in assay [2] (setting [7]) was determined as 0.018 µg/mL; in assay [3] (setting [8]) it was 3 µg/mL. Moreover, the “CX-1 (colon carcinoma cells IC50 value)” value in assay [2] (setting [9]) stood at 0.005 µg/mL. Besides, the “T/C (test drug versus control, calculated based on 50% survival day)” value in assay [4] is 228%. Moreover, the figures for the T/C in assay [5] and in assay [6] were 340% and 227%, respectively.

With `CN(C)c1ccc(-c2cc(-c3ccccc3)[s+]c(-c3ccccn3)c2)cc1` [T-3, 4-(4-dimethylaminophenyl)-2-phenyl-6-(2-pyridyl)thiapyrylium perchlorate], the Selectivity in assay [2] turned out to be 167; in assay [2] (retest), 100. Besides, the “CX-1 (colon carcinoma cells IC50 value)” value in assay [2] (setting [7]) was 0.015 µg/mL; in assay [2] (setting [9]), 0.025 µg/mL. The “CV-1 (normal cells IC50 value)” value in assay [3] (setting [8]) and in assay [3] (setting [10]) was 2.5 µg/mL throughout.

As to `CN(C)c1ccc(-c2cc(-c3ccccn3)[s+]c(-c3cccs3)c2)cc1` [T-4, 4-(4-dimethylaminophenyl)-2-(2-pyridyl)-6-(2-thienyl)thiapyrylium perchlorate], the figures for the Selectivity in assay [2] and in assay [2] (retest) were 333 and 100, respectively. The 50% inhibitory concentration (IC50) came to 0.015 µg/mL in assay [2] (setting [9]) and 1.5 µg/mL in assay [3] (setting [10]). Also, in assay [3] (setting [8]), the “CV-1 (normal cells IC50 value)” value came to 5.0 µg/mL.

Regarding `CN(C)c1ccc(-c2cc(-c3ccccc3)[s+]c(-c3ccccc3)c2)cc1` [compound 2, reference compound], the “S (selectivity value)” value in assay [2] is 5.0.

`CN(C)c1ccc(-c2cc(-c3cccs3)[s+]c(-c3cccs3)c2)cc1` [compound 3, 2,6-Bis(2-thienyl)-4-(4-dimethylaminophenyl)thiapyrylium perchlorate, reference compound]: the “S (selectivity value)” value in assay [2] was determined as 1.0.

Regarding `CN(C)c1ccc(-c2cc(-c3ccncc3)[s+]c(-c3cccs3)c2)cc1` [compound 4, 4-(4-Dimethylaminophenyl)-2-(4-pyridyl)-6-(2-thienyl)thiapyrylium perchlorate, reference compound], the “S (selectivity value)” value in assay [2] turned out to be 3.3.

For `CN(C)c1ccc(-c2cc(-c3ccco3)[s+]c(-c3cccs3)c2)cc1` [compound 5, 4-(4-Dimethylaminophenyl)-2-(2-furyl)-6-(2-thienyl)thiapyrylium perchlorate, reference compound], in assay [2], the “S (selectivity value)” value amounted to 13.5.

In the case of `CN(C)c1ccc(-c2cc(-c3ccccc3)[s+]c(-c3ccc(N(C)C)cc3)c2)cc1` [compound 6, reference compound], the “S (selectivity value)” value in assay [2] was 10.0.

On to `Cc1cc(N(CCCl)CCCl)ccc1-c1cc(-c2ccccc2)[s+]c(-c2ccccc2)c1` [compound 7, reference compound], for which the “S (selectivity value)” value in assay [2] is recorded as less than 7.5.

As for `c1ccc(CN(Cc2ccccc2)c2ccc(-c3cc(-c4ccccc4)[s+]c(-c4ccccc4)c3)cc2)cc1` [compound 8, reference compound], in assay [2], the “S (selectivity value)” value was less than 7.5.

Turning to `ClCCN(CCCl)c1ccc(-c2cc(-c3ccccc3)[s+]c(-c3ccccc3)c2)cc1` [compound 9, reference compound], the “S (selectivity value)” value in assay [2] was less than 5.0.
